Measured values reported in patent US20080057529A1, “Method for Identifying Histone Deacetylase Inhibitors” (priority 2003, published 2008).

Experiments:
Type in all cases: cell-based, human
p21 minimal promoter [1] = assay: Transient transfection of HeLa cells with p21m-SEAP reporter plasmid, SEAP activity; details: Apicidin 1 μM, TSA 300 nM; for SEAP (10 min) / SEAP norm-bckg/RLU norm: Table 5
Protocol: To determine whether the p21 minimal promoter was responsive to HDAC inhibitors, a reporter plasmid containing the secreted alkaline phosphatase gene (SEAP) operably linked to the p21 minimal promoter (−182 through +25), pcDNA3-21m-SEAP, was tested in transient transfection experiments of HeLa cells. […] All data summarized in Tables 4 through 7 were obtained by normalizing the total amount of transfected DNA to 2.1 μg using a promoterless plasmid.

[2] = tested on: HDAC activity (acetylated histone H3); assay: Acetylation of core histones (inhibition of HDAC activity) in HeLa cells, acetylated histone H3 immunoblot; details: HeLa cells, 13 hour treatment, immunoblot densitometry; read-out: AcH3 EC50
Protocol: (§1) Induction of endogenous p21 and acetylation of core histones (inhibition of HDAC activity) was as follows. Dose-response experiments were performed in HeLa cells with different classes of known HDAC inhibitors. […] An α-tubulin-specific antibody (Sigma, St. Louis, Mo.; catalog number: T9026) was used as an internal standard. Quantitative data were obtained by densitometric analysis of X-ray films and were normalized for the internal standard values.

endogenous p21 = assay: Induction of endogenous p21 in HeLa cells, immunoblot; details: 13 hour treatment, immunoblot densitometry, read-out: Endogenous p2 EC50
Protocol: as §1

HeLa cells = assay: Cell death in transiently transfected HeLa cells
Protocol: (§2) The p21m-BLA reporter plasmid was tested in transient transfection experiments of HeLa cells to evaluate the responsiveness of the minimal p21 promoter and the Bla reporter system to known HDAC inhibitors. In the first two transfection experiments, HeLa cells were transfected with 1 or 2 μg of Bla reporter plasmid containing either p21 minimal promoter (p21m-BLA) or CMV promoter (CMV-BLA) and 0.1 μg of pCMV-Luc or pRSV-Luc control plasmids. Different DNA-FUGENE transfection reagent ratios were tested (FUGENE is available from Roche Applied Science, Indianapolis, Ind.). […] Data are summarized below in Tables 1 and 2.
(§3) The percentage of β-lactamase-positive cells increased with time independent of the presence of HDAC inhibitors and was constantly higher with p21m-BLA than with pCMV-BLA.

CMV promoter [3] = assay: Luc activity of co-transfected pCMV-Luc control plasmid in HeLa cells; details: for RLU norm mean / RLU/μg: Table 5; for RLU/μg: luciferase control plasmid not named
CMV promoter [4] = assay: Transient transfection of HeLa cells with CMV-BLA (pCMV-BLA) reporter plasmid, Bla staining (blue cells)
Protocol: as §2, §3
In light of the above, the lack of apparent Bla activation in the above transfection experiments might have been due to the high sensitivity of the method. Therefore, transient transfections in which an accurate titration of the reporter plasmid DNA were performed. The titration of the reporter plasmid included using amounts lower than was used above. […] The transient transfections were repeated and the result confirmed (Table 7).

p21 minimal promoter [5] = assay: Fluorometric β-lactamase activity assay in stable HeLa clone 1.17 (p21m-BLA)
Protocol: All clones were screened for the presence of stably and functional integrated copies of the p21m-BLA reporter gene transcription cassette by performing a fluorometric β-lactamase activity assay after treatment with the HDAC inhibitor Apicidin at a concentration of 1 μM (saturating dose representing 100% of Bla gene activation, i.e., 100% of HDAC inhibition). A 100 μL aliquot of cells for each stable transformant in complete DMEM was plated into a well of a 96 well plate at about 36,000 cells per well for treatment with 1 μM Apicidin (saturating dose) and a 100 μL aliquot of cells was plated into a well of a 96 well plate at 24,000 cells per well for treatment with DMSO (vehicle control). […] After 4 hours, 25 μL of complete DMEM containing Apicidin at 5× final concentration or DMSO (5%) was added to each of the wells. The cells were then grown at 37° C., 5% CO2 for about 12 to 16 hours. Afterwards, the medium was removed and 100 μL of DMEM without serum and 25 μL of FRET labeled CCF2-AM Bla substrate diluted in the appropriate buffer according to the manufacturer recommendations were each added to the cells to give a final concentration of 1 μM CCF2-AM.

[6] = Table 2, 400 nM, 12 hours, 1 μg CMV-BLA + 3 μL F + CMV-luc
[7] = Table 3, 2 μg pCMV-BLA + 0.1 μg pCMV-Luc, 12 hr treatment, TSA 300 nM, Apicidin 1 μM
[8] = Table 3, 2 μg pCMV-BLA + 0.1 μg pCMV-Luc, 24 hr treatment, TSA 300 nM, Apicidin 1 μM
[9] = Apicidin 1 μM, TSA 300 nM, P21m-SEAP 0 μg DNA
[10] = Apicidin 1 μM, TSA 300 nM, P21m-SEAP 0.1 μg DNA
[11] = Apicidin 1 μM, TSA 300 nM, P21m-SEAP 0.5 μg DNA
[12] = Apicidin 1 μM, TSA 300 nM, P21m-SEAP 1 μg DNA

CC(/C=C/C(=O)NO)=C\[C@@H](C)C(=O)c1ccc(N(C)C)cc1 [TSA, Trichostatin A]
induction of SEAP (maximum) (p21 minimal promoter [1]; p21m-SEAP promoter titration in HeLa): up to 26 fold | SEAP (10 min) (p21 minimal promoter [1]; P21m-SEAP 0 μg DNA (total DNA 2.1 μg)): 2313 | SEAP norm-bckg/RLU norm (p21 minimal promoter [1]; P21m-SEAP 0.1 μg DNA): 6,558.72 | SEAP (10 min) (p21 minimal promoter [1]; P21m-SEAP 0.1 μg DNA (total DNA 2.1 μg)): 4405 | SEAP norm-bckg/RLU norm (p21 minimal promoter [1]; P21m-SEAP 0.2 μg DNA): 11,855.92 | SEAP (10 min) (p21 minimal promoter [1]; P21m-SEAP 0.2 μg DNA (total DNA 2.1 μg)): 9328 | SEAP norm-bckg/RLU norm (p21 minimal promoter [1]; P21m-SEAP 0.5 μg DNA): 25,471.82 | SEAP (10 min) (p21 minimal promoter [1]; P21m-SEAP 0.5 μg DNA (total DNA 2.1 μg)): 15743 | SEAP norm-bckg/RLU norm (p21 minimal promoter [1]; P21m-SEAP 1 μg DNA): 108,713.07 | SEAP (10 min) (p21 minimal promoter [1]; P21m-SEAP 1 μg DNA (total DNA 2.1 μg)): 50626 | SEAP norm-bckg/RLU norm (p21 minimal promoter [1]; P21m-SEAP 2 μg DNA): 201,678.57 | SEAP (10 min) (p21 minimal promoter [1]; P21m-SEAP 2 μg DNA (total DNA 2.1 μg)): 109998 | EC50 [2]: 0.13 µM | EC50 (endogenous p21): 0.19 µM | cells dead after treatment (HeLa cells; 400 nM, 12 hours induction, transfected HeLa cells, both experiments): approximately 50% | cell death at longer incubation times, compared with Apicidin (HeLa cells; 12 and 24 hours, TSA 300 nM vs Apicidin 1 μM): higher fraction of cells died | Cell-death (HeLa cells; after 6 hours, TSA 300 nM, Apicidin 1 μM, transfected HeLa cells): not visible | RLU/mg (CMV promoter [3]; Table 1, 400 nM, 12 hours, 2 μg CMV-BLA + 6 μL F, control plasmid not given): 14934 RLU/mg | RLU/mg (CMV promoter [3]; Table 1, 400 nM, 12 hours, 2 μg p21m-BLA + 6 μL F, control plasmid not given): 50773.9 RLU/mg | RLU/mg (CMV promoter [3]; Table 1, 400 nM, 12 hours, 2 μg p21m-BLA + 10 μL F, control plasmid not given): 22499.2 RLU/mg | RLU/mg (CMV promoter [3]; [6]): 14928.8 RLU/mg | RLU/mg (CMV promoter [3]; Table 2, 400 nM, 12 hours, 1 μg p21m-BLA + 3 μL F + CMV-luc): 47709.8 RLU/mg | RLU/mg (CMV promoter [3]; Table 3, 2 μg p21m-BLA + 0.1 μg pCMV-Luc, 6 hr treatment, TSA 300 nM, Apicidin 1 μM): 85379 RLU/mg | RLU/mg (CMV promoter [3]; Table 3, 2 μg p21m-BLA + 0.1 μg pCMV-Luc, 12 hr treatment, TSA 300 nM, Apicidin 1 μM): 248656.9 RLU/mg | RLU/mg (CMV promoter [3]; Table 3, 2 μg p21m-BLA + 0.1 μg pCMV-Luc, 24 hr treatment, TSA 300 nM, Apicidin 1 μM): 110180.6 RLU/mg | RLU/mg (CMV promoter [3]; Table 3, 2 μg pCMV-BLA + 0.1 μg pCMV-Luc, 6 hr treatment, TSA 300 nM, Apicidin 1 μM): 12579.8 RLU/mg | RLU/mg (CMV promoter [3]; [7]): 33592.3 RLU/mg | RLU/mg (CMV promoter [3]; [8]): 22233.7 RLU/mg | RLU norm mean (CMV promoter [3]; [9]): 0.97 | RLU/μg (CMV promoter [3]; [9]): 94,973.90 RLU/μg | RLU norm mean (CMV promoter [3]; [10]): 0.97 | RLU/μg (CMV promoter [3]; [10]): 95,526.00 RLU/μg | RLU/μg (CMV promoter [3]; Apicidin 1 μM, TSA 300 nM, P21m-SEAP 0.2 μg DNA): 116,091.50 RLU/μg | RLU norm mean (CMV promoter [3]; [11]): 0.85 | RLU/μg (CMV promoter [3]; [11]): 83,237.58 RLU/μg | RLU norm mean (CMV promoter [3]; [12]): 0.89 | RLU/μg (CMV promoter [3]; [12]): 87,194.70 RLU/μg | RLU/μg (CMV promoter [3]; Apicidin 1 μM, TSA 300 nM, P21m-SEAP 2 μg DNA): 111,592.45 RLU/μg | % Blue cells (CMV promoter [4]; Table 1, 400 nM, 12 hours induction, 1 μg CMV-BLA + 3 μL F): 5% | % Blue cells (CMV promoter [4]; Table 1, 400 nM, 12 hours induction, 2 μg CMV-BLA + 6 μL F): 15-20% | % Blue cells (CMV promoter [4]; Table 2, 400 nM, 12 hours induction, 1 μg CMV-BLA + 3 μL F): 5% | % Blue cells (CMV promoter [4]; Table 2, 400 nM, 12 hours induction, 2 μg CMV-BLA + 6 μL F): 5% | % Blue cells (CMV promoter [4]; [6]): 5% | % Blue cells (CMV promoter [4]; Table 2, 400 nM, 12 hours, 1 μg CMV-BLA + 3 μL F + RSV-luc): 7% | % Blue cells (CMV promoter [4]; Table 2, 400 nM, 12 hours, 2 μg CMV-BLA + 6 μL F + CMV-luc): 7% | % Blue cells (CMV promoter [4]; Table 2, 400 nM, 12 hours, 2 μg CMV-BLA + 6 μL F + RSV-luc): 7% | % Blue cells (CMV promoter [4]; [7]): 4-5% | % Blue cells (CMV promoter [4]; [8]): 15% | reversion of Bla induction after FACS sorting (p21 minimal promoter [5]; clone 1.17, 600 nM for 13 hr, then 7 days in culture, DMSO-treated samples): Complete reversion | reversibility of induction of BlaM transcription (p21 minimal promoter [5]; clone 1.17, 300 or 600 nM for 13 hours, 48 hours after removal): complete shut down of β-lactamase activity | EC50 (p21 minimal promoter [5]; clone 1.17, about 13 hours treatment, means of 3 to 4 independent experiments, read-out: p21m-Bla EC50): 0.09 µM
